Experimental findings from patent US12441725B2, “ISO-citrate dehydrogenase (IDH) inhibitor” (ZHEJIANG METON PHARMACEUTICAL CO., LTD, priority 2019, dated 2025) are described below.

Some results are limits rather than exact numbers.

For one assay, the target named is T1, IDH1 R132H (Homo sapiens, UniProt O75874, R132H).
T1 construct: 6xHis
The assay can be described thus: Biochemical assay for IDH inhibition (NADPH fluorescence), mutant IDH1 R132H. The following applies: 50 nM IDH1-R132H, 1 hour pre-incubation, in triplet. The source says:
(§1) The present disclosure provides a biochemical assay method for detecting the IDH inhibition and selectivity of the compounds by detecting IDH enzyme activity directly.
(§2) Wild-type IDH enzymes convert NADP^+ to NADPH when catalyzing the α-KG producing reaction. Mutant IDH enzymes convert NADPH to NADP^+ when catalyzing the D-2-HG producing reaction. So, the activity of wild-type and mutant IDH1/2 could be measured by monitoring NADPH level change as NADPH is fluorescent (Excitation 340 nm, Emission 460 nm). By monitoring the change of NADPH level in the reaction, the enzyme activity could be determined rapidly and efficiently and IC50 of a compound could also be assayed.
(§3) The test compounds are prepared into 50 mM stock solutions in DMSO and stored at −20° C. Each test compound stock is further diluted to obtain a 100× stock solution at a concentration of 400 μM, 200 μM, 100 μM, 50 μM, 25 μM, 12.5 μM, 6.25 μM and 3.125 μM, respectively, for the final use on the day of test (the concentration range of 100× stock solutions might be adjusted to cover the estimated IC50 of a specific test compound).
(§4) Inhibition of Mutant IDH1 (R132H or R132C):
(§5) To assay the enzymatic activity of mutant IDH1 proteins, 25 nM IDH1-R132C or 50 nM IDH1-R132H protein solutions are prepared in 20 mM Tris-HCl pH7.5, 150 mM NaCl, 10 mM MgCl2, 1 mM DTT, 0.05 mg/ml BSA and 1.33 mM α-KG. 148 μL 25 nM IDH1-R132C or 50 nM IDH1-R132H protein solutions are mixed with 2 μL DMSO (vehicle control for test compounds) or an above-mentioned 100× stock solution of a test compound and incubated for 1 hour at room temperature. Extra reactions containing 148 μL no-enzyme solution (20 mM Tris-HCl pH7.5, 150 mM NaCl, 10 mM MgCl2, 1 mM DTT, 0.05 mg/ml BSA and 1.33 mM α-KG) and 2 μL DMSO are also set up as background controls. Then each reaction is initiated by adding 50 μL 80 μM NADPH solution prepared in 20 mM Tris-HCl pH7.5, 150 mM NaCl, 10 mM MgCl2, 1 mM DTT and 0.05 mg/ml BSA. BioTek Synergy H1 Microplate reader (BioTek Instruments Inc., Winooski, U.S.) is employed to monitor the NADPH fluorescence (Excitation 340 nm, Emission 460 nm) every 42 seconds for 15 minutes. NADPH change rate is determined according to the linear phase of the fluorescence-time curve and results from the background control reactions are used as background subtraction to calculate the net NADPH change rates of other reactions. The net NADPH change rates from the vehicle control reactions are used as 100% enzymatic activity and thus the relative enzymatic activity of reactions with test compounds added could be determined. Then a dose-response curve is drawn for each test compound and the corresponding IC50 is calculated. The IC50 value is used to evaluate the inhibition and selectivity of each test compound on the IDH enzymatic activity.
(§6) The IDH inhibition activity of the compounds were assessed according to Test 2 of the Biological Assay section. The test for mutant IDH1 R132H and IDH1 R132C inhibition of each compound was carried out in triplet. As used in Table 5, “A” refers to an inhibitory activity against IDH1 R132H or IDH1 R132C with an IC50<0.1 μM; “B” refers to an inhibitory activity against IDH1 R132H or IDH1 R132C with an IC50 from 0.1 μM to 0.5 μM; “C” refers to an inhibitory activity against IDH1 R132H or IDH1 R132C with an IC50 from 0.5 μM to 1 μM; “D” refers to an inhibitory activity against IDH1 R132H or IDH1 R132C with an IC50>1 μM.

The target of assay [1] is T2, IDH (endogenous IDH1 R132C) in HT1080 cell (Homo sapiens, UniProt O75874, R132C).
T2 construct: which harbor endogenous heterozygous IDH1 R132C and R132H mutation respectively and accumulate D-2-HG
T2 sequence (O75874 2-414 R132C): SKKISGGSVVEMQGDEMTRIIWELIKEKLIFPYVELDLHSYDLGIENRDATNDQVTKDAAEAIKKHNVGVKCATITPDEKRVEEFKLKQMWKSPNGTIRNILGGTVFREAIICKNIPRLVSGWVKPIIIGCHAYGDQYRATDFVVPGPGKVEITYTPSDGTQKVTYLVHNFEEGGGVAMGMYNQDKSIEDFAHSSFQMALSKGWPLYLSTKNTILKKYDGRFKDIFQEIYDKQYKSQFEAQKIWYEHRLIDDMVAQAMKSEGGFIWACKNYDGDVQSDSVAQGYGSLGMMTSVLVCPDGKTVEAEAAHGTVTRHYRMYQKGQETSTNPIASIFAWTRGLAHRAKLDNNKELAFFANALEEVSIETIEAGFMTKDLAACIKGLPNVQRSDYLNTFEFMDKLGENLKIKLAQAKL
The assay can be described thus: Cell-based assay for IDH inhibition (decrease of D-2-HG) in HT1080 cells. The note with it: human fibrosarcoma cell line HT1080, 16 hours treatment, D-2-HG by LC-MS, in triplet. The source says:
The present disclosure also provides a cell-based method for assaying IDH inhibition and selectivity of the compounds in human fibrosarcoma cell line HT1080 and cholangiocarcinoma cell line HCCC 9810, which harbor endogenous heterozygous IDH1 R132C and R132H mutation respectively and accumulate D-2-HG. Tumor -derived IDH mutant lost its normal activity of producing α-KG, and gained a new activity of producing D-2-HG. D-2-HG is a metabolite specifically elevated in tumor cells expressing mutant IDH1 or IDH2 proteins. When treating such mutant IDH-expressing tumor cells with an effective IDH inhibitor, the synthesis of D-2-HG is blocked, and D-2-HG concentration is decreased by the oxidation reaction catalyzed by the endogenous D-2-HG dehydrogenase.
To perform a cell-based IDH inhibition assay, HT1080 and HCCC 9810 cells (or other cell lines harboring different IDH mutations) are cultured in DMEM supplemented with 10% FBS. The cells are treated with compounds of present disclosure at various different concentrations. 16 hours after the treatment, culture medium supernatants are removed and cell metabolites are extracted by 40% methanol and 40% acetonitrile in water (pre-chilled under −80° C.) at 4° C. for 1 hour. The extract supernatants are collected and cell debris are removed via high speed centrifugation. The resulting metabolite extracts are analyzed on an Agilent LC-MS system (model: 1290-6470) for 2-HG and glutamate concentration. A HILIC-Z column (2.1 mm×100 mm, […]) is employed on HPLC. Mobile phase A is 15 mM CH3COONH4 and 0.3% NH3·H2O in water. Mobile phase B is 15 mM CH3COONH4 and 0.3% NH3·H2O in 90% MeCN/10% H2O solvent. An 19% solvent A and 81% solvent B isocratic gradient method is used at a flow rate of 0.3 ml/min. D-2-HG is ionized under negative ion spray mode and detected through the multiple-reaction monitoring of a mass transition pair at m/z=147.0/128.9 and 147.0/85.1. Glutamate is ionized under ion spray mode and detected on negative polarity multiple-reaction monitoring of a mass transition pair at m/z=146/102 and 146/128 and its level is used to normalize 2-HG concentration. The activity of cellular mutant IDH proteins in the presence of each test compound at different concentrations can be represented by relative D-2-HG concentration to negative control samples (i.e., cells are treated with DMSO only), and the IC50 value could be determined to evaluate the inhibition and selectivity of each test compound on the IDH enzymatic activity.
The IDH inhibition activity of the compounds were assessed in human fibrosarcoma cell line HIT1080 according to Test 3 of the Biological Assay section. The test for IDH inhibition of each compound was carried out in triplet. As used in Table 6, “A” refers to an IDH inhibitory activity with an IC50<0.1 μM; “B” refers to an IDH inhibitory activity with an IC50 from 0.1 μM to 0.5 μM; “C” refers to an IDH inhibitory activity with an IC50 from 0.5 μM to 1 μM; “D” refers to an IDH inhibitory activity with an IC50>1 μM.

Another assay concerns the target T3, IDH1 R132C (Homo sapiens, UniProt O75874, R132C).
T3 construct: 6xHis
Description: Biochemical assay for IDH inhibition (NADPH fluorescence), mutant IDH1 R132C. The note with it: 25 nM IDH1-R132C, 1 hour pre-incubation, in triplet.
Description: as §1, §2, §3, §4, §5, §6

T1 sequence (O75874 whole entry R132H): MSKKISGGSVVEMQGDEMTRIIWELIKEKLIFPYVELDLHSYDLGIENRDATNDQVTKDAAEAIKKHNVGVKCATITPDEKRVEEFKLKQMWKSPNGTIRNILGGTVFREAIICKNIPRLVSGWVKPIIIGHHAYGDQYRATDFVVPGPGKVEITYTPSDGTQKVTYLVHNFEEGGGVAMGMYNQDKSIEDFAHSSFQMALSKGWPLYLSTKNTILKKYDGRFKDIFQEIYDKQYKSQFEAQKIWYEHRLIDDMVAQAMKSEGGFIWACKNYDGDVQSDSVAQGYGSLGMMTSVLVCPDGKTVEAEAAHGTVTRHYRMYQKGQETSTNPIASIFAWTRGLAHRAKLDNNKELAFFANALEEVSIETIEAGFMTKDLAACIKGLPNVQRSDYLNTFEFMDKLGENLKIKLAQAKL
T3 sequence (O75874 whole entry R132C): as the sequence (O75874 whole entry R132H) above, with H132C counted along it

In the case of `CCN1Cc2c(ccnc2N[C@H](C)c2ccc(Oc3ccccc3)c(F)c2)C1=O` [Compound 12, (R)-2-ethyl-4-((1-(3-fluoro-4-phenoxyphenyl)ethyl)amino)-2,3-dihydro-1H-pyrrolo[3,4-c]pyridin-1-one], the IC50 (on IDH1 R132H; in assay [1]; on IDH1 R132C) was more than 1000 nM each time.
For the compound `CCN1Cc2c(ccnc2N[C@@H](C)c2ccc(Oc3cccnc3)c(F)c2)C1=O` [Compound 13, (S)-2-ethyl-4-((1-(3-fluoro-4-(pyridin-3-yloxy)phenyl)ethyl)amino)-2,3-dihydro-1H-pyrrolo[3,4-c]pyridin-1-one], the 50% inhibitory concentration (IC50) (on IDH1 R132H; in assay [1]; on IDH1 R132C) was more than 1000 nM each time.
For `CCN1Cc2c(ccnc2N[C@@H](C)c2ccc(OC3CCCCC3)c(F)c2)C1=O` [Compound 14, (S)-4-((1-(4-(cyclohexyloxy)-3-fluorophenyl)ethyl)amino)-2-ethyl-2,3-dihydro-1H-pyrrolo[3,4-c]pyridin-1-one], the half-maximal inhibitory concentration (IC50) (at IDH1 R132H; in assay [1]; on IDH1 R132C) was more than 1000 nM throughout.
With `CCN1Cc2c(ccnc2N[C@@H](C)c2ccc(OC3CCCC3)c(F)c2)C1=O` [Compound 15, (S)-4-((1-(4-(cyclopentyloxy)-3-fluorophenyl)ethyl)amino)-2-ethyl-2,3-dihydro-1H-pyrrolo[3,4-c]pyridin-1-one], the IC50 on IDH1 R132H was 100 to 500 nM; in assay [1], more than 1000 nM; on IDH1 R132C, 500 to 1000 nM.
On to `Cc1ccc(Oc2ccc([C@H](C)Nc3nccc4c3CN(CCF)C4=O)cc2F)cc1` [Compound 16, (S)-4-((1-(3-fluoro-4-(p-tolyloxy)phenyl)ethyl)amino)-2-(2-fluoroethyl)-2,3-dihydro-1H-pyrrolo[3,4-c]pyridin-1-one], for which the figures for the IC50 (at IDH1 R132H; in assay [1]; on IDH1 R132C) were 500 to 1000 nM, more than 1000 nM and 500 to 1000 nM, respectively.
As to `Cc1ccc(Oc2ccc([C@H](C)Nc3nccc4c3CN(CC(F)F)C4=O)cc2F)cc1` [Compound 17, (S)-2-(2,2-difluoroethyl)-4-((1-(3-fluoro-4-(p-tolyloxy)phenyl)ethyl)amino)-2,3-dihydro-1H-pyrrolo[3,4-c]pyridin-1-one], the IC50 at IDH1 R132H was 100 to 500 nM; in assay [1] it was more than 1000 nM; on IDH1 R132C, 100 to 500 nM.
Consider `CCN1Cc2c(N[C@@H](C)c3ccc(Oc4ccc(C)cc4)c(F)c3)ncc(F)c2C1=O` [Compound 18, (S)-2-ethyl-7-fluoro-4-((1-(3-fluoro-4-(p-tolyloxy)phenyl)ethyl)amino)-2,3-dihydro-1H-pyrrolo[3,4-c]pyridin-1-one], for which the IC50 at IDH1 R132H is 100 to 500 nM; in assay [1] it was more than 1000 nM; on IDH1 R132C, more than 1000 nM.
Regarding `CCN1Cc2c(N[C@@H](C)c3ccc(OC4CCCC4)c(F)c3)ncc(F)c2C1=O` [Compound 19, (S)-4-((1-(4-(cyclopentyloxy)-3-fluorophenyl)ethyl)amino)-2-ethyl-7-fluoro-2,3-dihydro-1H-pyrrolo[3,4-c]pyridin-1-one], the 50% inhibitory concentration (IC50) (on IDH1 R132H; in assay [1]; at IDH1 R132C) was more than 1000 nM in each case.
On to `CCN1Cc2c(ccnc2N[C@@H](C)c2cc(F)c(Oc3ccc(C)cc3)cc2F)C1=O` [Compound 20, (S)-4-((1-(2,5-difluoro-4-(p-tolyloxy)phenyl)ethyl)amino)-2-ethyl-2,3-dihydro-1H-pyrrolo[3,4-c]pyridin-1-one], for which the IC50 at IDH1 R132H lay in the range of 100 to 500 nM; in assay [1], 500 to 1000 nM; on IDH1 R132C, 100 to 500 nM.
With `CCN1Cc2c(ccnc2N[C@@H](C)c2cc(F)c(Oc3ccc4c(ccn4C)c3)cc2F)C1=O` [Compound 21, (S)-4-((1-(2,5-difluoro-4-((1-methyl-1H-indol-5-yl)oxy)phenyl)ethyl)amino)-2-ethyl-2,3-dihydro-1H-pyrrolo[3,4-c]pyridin-1-one], the results for the half-inhibitory concentration (IC50) (on IDH1 R132H; in assay [1]; on IDH1 R132C) were less than 100 nM, more than 1000 nM and 100 to 500 nM, respectively.
The corresponding values for `CCN1Cc2c(ccnc2N[C@@H](C)c2cc(F)c(OC3CC(C)CC(C)(C)C3)cc2F)C1=O` (stereo partly drawn) [Compound 22, 4-(((1S)-1-(2,5-difluoro-4-((3,3,5-trimethylcyclohexyl)oxy)phenyl)ethyl)amino)-2-ethyl-2,3-dihydro-1H-pyrrolo[3,4-c]pyridin-1-one] are less than 100 nM, less than 100 nM and less than 100 nM.
The like results for `CCN1Cc2c(ccnc2N[C@@H](C)c2cc(F)c(O[C@@H]3C[C@@H](C)CC(C)(C)C3)cc2F)C1=O` [Compound 23, 4-(((S)-1-(2,5-difluoro-4-(((1R,5S)-3,3,5-trimethylcyclohexyl)oxy)phenyl)ethyl)amino)-2-ethyl-2,3-dihydro-1H-pyrrolo[3,4-c]pyridin-1-one] were, in that order, less than 100 nM, less than 100 nM and less than 100 nM.

As usually defined, the IC50 is the concentration that gives 50% inhibition.
